Measured values reported in patent US11744273B2, “Sweetness enhancing volatile compositions and methods of increasing perceived sweetness of a comestible” (University of Florida Research Foundation, Inc., priority 2016, dated 2023).

Columns and labels:
Format in all cases: in vivo, human
[1] = tested on: blueberry flavor intensity; assay: Blueberry sensory panels; PLS analysis, blueberry flavor intensity (Table 7); conditions: response Flavor
Method: (§1) Sensory analysis was conducted similar to described above for tomatoes and strawberries in Examples 1 and 3. […] Panelists were trained with the scaling methods and were encouraged to return for the remainder of the study. Panelists rated overall liking, texture liking, sweetness, sourness, and flavor intensity using hedonic general Labeled Magnitude Scales (gLMS) (−100 to +100; −100=greatest disliking of any kind, +100=greatest liking of any kind) and intensity gLMS (0 to +100; 0=no sensation, 100=most intense sensation of any kind), which allow for improved comparison between panelists and between years (see Bartoshuk, L. M., et al., 2004 and Bartoshuk, L. M., et al., 2005). […] Ratings were recorded using Compusense software.
(§2) Soluble solids content (SSC), titratable acidity (TA), and volatiles were quantified as described above for tomato and strawberries. […] Elutions were run on an Agilent 7890A Gas Chromatograph Flame Ionization Detector (GC-FID) DB-5 column (30 m length×[…]) for quantification and on an Agilent 7890A Gas Chromatograph coupled to an Agilent 5977A Mass Selective Detector (GC/MSD) for qualification (Agilent, Santa Clara, Calif.). Integrated peak area of each signal was normalized for elution, fitted to relative pure chemical response, corrected for sample mass, and expressed as nanograms per gram fresh weight per hour (ng gFW-1 h-1). […]

[2] = tested on: sourness; assay: Blueberry sensory panels; PLS analysis, sourness (Table 7); conditions: response Sourness
Excerpt: Panelists were trained with the scaling methods and were encouraged to return for the remainder of the study. […] Panelists were also asked to rate the intensity of taste and flavor sensations of a hypothetical ideal blueberry on this scale. Each panelist received two to four berries of five to six genotypes in a single panel in a Williams design, which was generated by Compusense 5.6 (Compusense Inc., Guelph, Ontario, Canada). They were asked to eat the blueberries of each genotype at once, and to take a bite of cracker and sip of water in between samples. Ratings were recorded using Compusense software.
Soluble solids content (SSC), titratable acidity (TA), and volatiles were quantified as described above for tomato and strawberries. […] Integrated peak area of each signal was normalized for elution, fitted to relative pure chemical response, corrected for sample mass, and expressed as nanograms per gram fresh weight per hour (ng gFW-1 h-1). Response fitting was calculated using the response factor of pure chemical standards (Sigma-Aldrich, St. Louis, Mo.) run on the same instrument.
Pair-wise correlations and significance between sensory measurements and primary bio-chemical components were calculated, with panelist as a random effect. […] The inclusion of texture liking was evaluated independently given that no explanatory physical measure was made for sample texture. […]

[3] = tested on: sweetness; assay: Blueberry sensory panels; PLS analysis, sweetness (Table 7); conditions: for PLS Coefficient: response Sweetness; for independent enhancement of perception of sweetness: multivariate regression analysis
Method: Sensory analysis was conducted similar to described above for tomatoes and strawberries in Examples 1 and 3. […] Panelists were trained with the scaling methods and were encouraged to return for the remainder of the study. Panelists rated overall liking, texture liking, sweetness, sourness, and flavor intensity using hedonic general Labeled Magnitude Scales (gLMS) (−100 to +100; −100=greatest disliking of any kind, +100=greatest liking of any kind) and intensity gLMS (0 to +100; 0=no sensation, 100=most intense sensation of any kind), which allow for improved comparison between panelists and between years (see Bartoshuk, L. M., et al., 2004 and Bartoshuk, L. M., et al., 2005). Panelists were also asked to rate the intensity of taste and flavor sensations of a hypothetical ideal blueberry on this scale. Each panelist received two to four berries of five to six genotypes in a single panel in a Williams design, which was generated by Compusense 5.6 (Compusense Inc., Guelph, Ontario, Canada). They were asked to eat the blueberries of each genotype at once, and to take a bite of cracker and sip of water in between samples. Ratings were recorded using Compusense software.
Soluble solids content (SSC), titratable acidity (TA), and volatiles were quantified as described above for tomato and strawberries. The volatiles were collected for two hours via dynamic headspace with HaySep Q 80-100 porous polymer adsorbent (Valco Instruments Company Inc., Houston, Tex.) and eluted with methylene chloride and nonyl acetate as an elution standard. Elutions were run on an Agilent 7890A Gas Chromatograph Flame Ionization Detector (GC-FID) DB-5 column (30 m length×[…]) for quantification and on an Agilent 7890A Gas Chromatograph coupled to an Agilent 5977A Mass Selective Detector (GC/MSD) for qualification (Agilent, Santa Clara, Calif.). Integrated peak area of each signal was normalized for elution, fitted to relative pure chemical response, corrected for sample mass, and expressed as nanograms per gram fresh weight per hour (ng gFW-1 h-1). Response fitting was calculated using the response factor of pure chemical standards (Sigma-Aldrich, St. Louis, Mo.) run on the same instrument.
Pair-wise correlations and significance between sensory measurements and primary bio-chemical components were calculated, with panelist as a random effect. Least Square Means (LSMeans) of the sensory data for each sample were obtained to account of the random effect of panelist. A partial least squares (PLS) analysis was constructed in JMP1 Pro 10 (SAS Institute Inc., Cary, N.C.) to reveal effectors of sensory ratings (see, e.g., Togari N., et al., 1995; Hough, G., et al., 1996; deKermadec, F., et al., 1997; Toscas, P. J., et al., 1999; and Tenenhaus, M., et al., 2005). The response variables (Y) considered corresponded to LSMeans of overall liking, sweetness, sourness, and blueberry flavor intensity. Glucose, fructose, sucrose, TA, pH, and 52 volatile compounds were considered as explanatory variables (X). The inclusion of texture liking was evaluated independently given that no explanatory physical measure was made for sample texture. […] The model was created without texture for analysis.
• Top six and bottom six biochemical measures explaining sensory responses as determined by partial least squares (PLS) analysis. […]

[4] = tested on: overall liking; assay: Blueberry sensory panels; PLS analysis, overall liking (Table 7); conditions: response Overall Liking
Method: as §1, §2

[5] = tested on: perceived sweetness intensity; assay: Strawberry consumer panel; initial multiple regression of volatiles against perceived sweetness intensity independent of glucose, fructose or sucrose (Table 5); conditions: standard least squares; for FRUCTOSE t RATIO: sweetness intensity independent of fructose; for GLUCOSE t RATIO: sweetness intensity independent of glucose; for SUCROSE t RATIO: sweetness intensity independent of sucrose
Method: Step-wise multiple regressions of all volatile compounds against perceived intensity of sweetness is performed independent of either glucose, fructose, or sucrose concentration, separately (Table 5).
At least 100 grams or seven berries of each sample were removed from 4° C. dark overnight storage prior to volatile collection. Samples were homogenized in a blender prior to splitting into three 15 gram replicates for immediate capturing of volatile emission and remainder of sample frozen in N2 (I) and stored at −80° C. for later sugar and acid quantification.
Oven temperatures programmed from 40° C. (0.5 min hold) at 5° C. min^−1 to 250° C. (4 min hold). Signals captured with a flame ionization detector (FID) at 280° C. Peaks from FID signal were integrated manually with Chemstation B.04.01 software (Agilent Technologies, Santa Clara, Calif.). Volatile emission (ng gFW^−1 h^−1) calculated based on individual peak area relative to sample elution standard peak area.
All consumer panels were approved by the University of Florida Institutional Review Board. […] Ages of panelist ranged from 18 to 71, with a median age of 24. Panelists self-classified themselves as 98 White or Caucasian, 11 Black or African-American, 1 Native American, Alaska Native or Aleutian, 41 Asian/Pacific Islander, and 15 Other. […] Fresh, fully-ripe strawberry fruit was removed from overnight 4° C. dark storage and allowed to warm to room temperature prior to sensory analysis. Each panelist was given one to two whole strawberries for evaluation, depending on cultivar availability. Panelist took a bite of each sample, chewed, and swallowed it. Ratings for overall liking and liking for texture were scaled on hedonic general labeled magnitude scale (gLMS) in the context of all pleasure/displeasure experiences. […] Scales were employed to mediate valid comparisons across subjects and sessions.
For the first analysis, individual volatile compound concentrations were regressed using the “enter” method in SPSS Statistics (IBM Corp, Armonk, N.Y., USA).

[6] = tested on: strawberry flavor intensity; assay: Strawberry consumer panel; correlation of volatiles with strawberry flavor intensity
Method: Quantification of volatiles in an elution was performed on an Agilent 7890A Series gas chromatograph (GC) (carrier gas; He at 3.99 mL min^−1; splitless injector, temperature 220° C., injection volume 2 μl) equipped with a DB-5 column ((5%-Phenyl)-methylpolysiloxane, 30 m length×250 μm i.d.×1 μm film thickness; Agilent Technologies, Santa Clara, Calif., USA). Oven temperatures programmed from 40° C. (0.5 min hold) at 5° C. min^−1 to 250° C. (4 min hold). Signals captured with a flame ionization detector (FID) at 280° C. Peaks from FID signal were integrated manually with Chemstation B.04.01 software (Agilent Technologies, Santa Clara, Calif.). Volatile emission (ng gFW^−1 h^−1) calculated based on individual peak area relative to sample elution standard peak area. GC-Mass Spectrometry (MS) analysis of elution on an Agilent 6890N GC in tandem with an Agilent 5975 MS (Agilent Technologies, Santa Clara, Calif., USA) and retention time comparison with authentic standards (Sigma Aldrich, St Louis, Mo., USA) for volatile identification (Schmelz, 2001).
All consumer panels were approved by the University of Florida Institutional Review Board. Over the course of two annual seasons 166 strawberry consumers (58 male, 108 female) were recruited to evaluate strawberry cultivars. Ages of panelist ranged from 18 to 71, with a median age of 24. Panelists self-classified themselves as 98 White or Caucasian, 11 Black or African-American, 1 Native American, Alaska Native or Aleutian, 41 Asian/Pacific Islander, and 15 Other. An average of 106 (range of 98-113) panelists evaluated between three and five cultivars per session (Tieman, 2012). Fresh, fully-ripe strawberry fruit was removed from overnight 4° C. dark storage and allowed to warm to room temperature prior to sensory analysis. Each panelist was given one to two whole strawberries for evaluation, depending on cultivar availability. Panelist took a bite of each sample, chewed, and swallowed it. Ratings for overall liking and liking for texture were scaled on hedonic general labeled magnitude scale (gLMS) in the context of all pleasure/displeasure experiences. Perceived intensity of sweetness, sourness, and strawberry flavor were scaled in context of all sensory experiences using sensory gLMS (Bartoshuk, 2003; Bartoshuk, 2005; Tieman, 2012). Scales were employed to mediate valid comparisons across subjects and sessions.
Means and standard errors for consumer, physical, and metabolite measurements were determined from all replicates using JMP (Version 8. SAS Institute Inc., Cary, N.C., 1989-2008). Bivariate analysis among individual measurements of samples allowed for linear fit, which includes summary of fit, analysis of variance, t-test, and correlation analysis for density ellipse. […]

Row | SMILES | independent enhancement of perception of sweetness [3] | FRUCTOSE t RATIO [5] | GLUCOSE t RATIO [5] | SUCROSE t RATIO [5] | correlation with flavor intensity [6] | other results
1 | CC12CCC(CC1)C(C)(C)O2 [1,8-Cineole] | – | – | – | – | – | PLS Coefficient [1]: −0.0876; PLS Coefficient [2]: 0.1444; PLS Coefficient [3]: −0.1925; PLS Coefficient [4]: −0.1912
2 | CCCCCC(C)=O [2-Heptanone] | independently enhancing perception of sweetness | – | – | – | – | –
3 | CCCC(=O)OCC [105-54-4] | – | 2.533 | 2.493 | 0.034 | significant positive correlation with flavor intensity | –
4 | CCCC(=O)OC [623-42-7] | – | 1.455 | 1.452 | 0.419 | significant positive correlation with flavor intensity | –
5 | COC1=C(C)OC(C)C1=O (centres unmarked) [4077-47-8] | – | 2.414 | 2.185 | 0.299 | significant positive correlation with flavor intensity | –
6 | C=CC(C)(O)CCC=C(C)C (centres unmarked) [Linalool] | – | – | – | – | significant positive correlation with flavor intensity | –
7 | CC(C)=CCC/C(C)=C\C=O [neral] | independently enhancing perception of sweetness | – | – | – | – | –
8 | C=C1CC[C@H]2O[C@]2(C)CC[C@@H]2[C@@H]1CC2(C)C [β-Caryophyllene oxide, β-caryophyllene oxide] | independently enhancing perception of sweetness | – | – | – | – | PLS Coefficient [1]: 0.1527; PLS Coefficient [3]: 0.1418; PLS Coefficient [4]: 0.1455
